From US20110189174A1, “COMPOSITIONS AND METHODS FOR TREATING, REDUCING, AMELIORATING, ALLEVIATING, OR INHIBITING PROGRESSION OF, PATHOGENIC OCULAR NEOVASCULARIZATION” (priority 2010, published 2011)

Legend:
[1] = test system: laser-induced CNV in rats; assay: Laser-induced choroidal neovascularization in rats (CNV area, fluorescein angiography grades); assay type: in vivo, Brown Norway rats; details: day 14, 200 μg/eye (echistatin 5 μg, Avastin 125 μg); for Number of lesions in FA grade 1 / Number of lesions in FA grade 2 / Number of lesions in FA grade 3 / Number of lesions in FA grade 4: unobstructed lesions
Experimental: Fifty six male Brown Norway rats, approximately 200-300 grams of body weight and two months of age, were used in this study. This study was performed in two cohorts and only one eye of each rat was used.
The pupils were dilated and then the rats were anesthetized as described in baseline examination. The rats were positioned in front of a slit lamp system (Haag-Streit USA, Mason, Ohio). […] A diode laser (OcuLight TX, IRIDEX, Mountain View, Calif.) was used for photocoagulation (532 nm wavelength, 120 mW power, 50 μm spot size and 0.05 seconds duration). For each right eye, a series of six photocoagulation sites were concentrically placed between the major retinal vessels at equal distance (about two optic discs) around the optic nerve head. […] If a significant retinal or subretinal hemorrhage occurred during the laser photocoagulation, then the left eye was be photocoagulated and used as the experimental eye.
Grade 1 lesions had no hyperfluorescence.
The eyes were collected on day 14 and immediately fixed in 4% paraformaldehyde in PBS (pH 7.4) for one and half hours, and then transferred into cold PBS and kept at 4° C. for further processing.
The incubation was performed in a humidified dark chamber with gentle rotation at 4° C. overnight. On the second day, the retinal pigment epithelium (RPE)-choroidsclera complexes were washed with cold IHC buffer, mounted with ProLong® Gold antifade reagent, covered with circular cover glass, and sealed with clear nail polish. Fluorescent images were collected with a confocal microscope (FluoView FV 1000 confocal microscope, Olympus, Center Valley, Pa.) and a 4×, 0.16 numerical aperture objective lens. […] The laser sites were identified by merging images of the green (phalloidin labeling RPE) and the red (isolectin IB4 labeling CNV) channels. CNV complexes were identified using the red channel (isolectin), and their areas were quantified using the FluoView software (Version 1.7a).
Average FA scores and areas of CNV complexes in each group were presented as mean±SEM, unless otherwise indicated. They were analyzed using a one-way ANOVA followed by a Tukey-Kramer test after Box-Cox transformations. All statistics were performed utilizing the statistical analysis software JMP (SAS Institute, Cary, N.C.). p values ≦0.05 were considered statistically significant.

[2] = test system: human retinal endothelial cells (HREC); assay: PMA-induced HREC network formation in fibrin gel; assay type: cell-based; details: PMA 25 ng/mL, vs PMA control
Experimental: Prior to the start of the experiment, HREC from Cell Systems were cultured in flask in CS-C complete medium. The tube formation assay was performed in a 96-well plate pre-coated with fibrin gel. HREC were collected from flasks and re-suspended 1% FBS EBM-2 medium. Cells were pre-incubated with the integrin antagonists, echistatin or vehicle control for 30 min before loading onto the fibrin gel. Images were taken at 9 h.
Thrombin solution and fibrinogen solutions were allowed to thaw at room temperature and 37° C. water bath, respectively. Fibrinogen solution at 30 μL was added into the desired number of wells in a 96-well plate. Plate was gently shaken to ensure uniform coverage of fibrinogen solution in the well. Thrombin at 20 μL was added into each well. The plate was gently shaken immediately to ensure the thrombin was mixed well with fibrinogen. The plate was placed at 37° C. overnight to allow the fibrin gel to polymerize.
HREC were trypsinized at about 80% confluence and counted by standard hemocytometer methods. After deactivating trypsin with 5 mL of 10% FBS EBM-2 medium, the cells were centrifuged (800 rpm, 8 min) and re-suspended at 2×10^5 cells/mL in 1% FBS EBM-2 medium
Cells were pre-incubated with integrin compounds or echistatin at 37° C., 5% CO2, and 95% humidity for 30 minutes before mixing with PMA medium. The final concentrations of all agents are shown in the design table. The 100 μL of the cell mixture was added onto the gel and cells were cultured at 37° C., 5% CO2, and 95% humidity. Images were taken at different time points.
The network formation scoring system (a five point-scale)
Each well in one group was given a score and then averaged. Data were expressed as mean±SEM of network formation scores. Statistical analysis was performed using a one-way ANOVA-Dunnett's test in raw data, and p<0.05 was considered statistically significant. Data analysis was performed using statistical analysis software JMP (SAS Institute, Cary, N.C.).

[3] = test system: human retinal endothelial cells (HREC); assay: Testing 5: VEGF-induced HREC proliferation (MTS assay), echistatin and Avastin alone and in combination; assay type: cell-based; details: echistatin 2 nM
Experimental: HREC were first cultured overnight in a 96-well plate coated with fibronectin. The next day, cells were serum-starved for 2 h before treatment. Medium containing different agents as shown in table below was pre-incubated for 1 h before being added to cells. The cells were cultured at 37° C., 5% CO2, and 95% humidity for another 3 days. After that, cell proliferation was estimated by the MTS assay. […] Normal human IgG was also added to different groups in such a way that all groups contained the same amounts of IgG protein.
A 96-well plate was coated with human fibronectin (10 μg/mL) for 5 hours. HREC were collected from flasks by EDTA-trypsin treatment and re-suspended in 10% FBS CS-C medium at 15,000 cells/mL. Cells (200 μL) were added to the plate and cultured overnight at 37° C., 5% CO2, and 95% humidity. Next day, the medium was removed and 200 μl/well serum free medium was added.
All medium solutions were incubated for 1 h at 37° C. After carefully aspirating the medium from cells, […], of the medium containing the different agents was added into appropriate wells. The cells were cultured for another 3 days.
At the end of incubation, the medium was carefully aspirated from cells and 120 μl of MTS working solution was added into all wells including blank wells (without cells). The plate was incubated at 37° C., 5% CO2, and 95% humidity for 1 hour and then absorbance was read by a plate reader at 490 nm wavelength.
Median optical density (OD) was generated from different groups. Data were expressed as mean±SEM of the OD values. Statistical analysis was performed using a one or two-way ANOVA using Box-Cox transformed data if needed, and P<0.05 was considered statistically significant. […] All the data from the individual wells were fitted to a re-parameterized four-parameter logistic equation to obtain IC50 using similar methodology as that previously described and utilizing the statistical analysis software JMP (SAS Institute, Cary, N.C.).

[4] = Ocular clinical findings in rats 14 days after intravitreal injection; details: for Intraocular inflammation and retinal vascular congestion: Day 14 after intravitreal injection
Experimental: The anterior segment of the eye was examined using a slit-lamp biomicroscopy for excluding any animals with abnormalities that might interfere with the study. Fundus photography and fluorescein angiography (FA) were performed to document the health of the retina and the ocular circulation using a TRC 50EX fundus camera (Topcon). For FA, 10% sodium fluorescein was injected intravenously (50 mg/kg of body weight) through the tail vein or the vein under the incisor before the procedure.
Immediately after placement of laser photocoagulation, the experimental eyes received an intravitreal injection of either a compound or a vehicle as described in Table 5. Following the disinfection of ocular surface with 5% betadine and 0.9% saline solutions, the injections were performed with aid of a surgical microscope using 0.3 mL syringes with a 31-gauge ½-inch long needle (Ultra-Fine II™ Insulin syringe, BD, Franklin Lakes, N.J.).
Two weeks after photocoagulation, all rats were examined under anesthesia and pupil dilation with slit-lamp biomicroscopy, fundus photography and FA as described in the baseline examination.

[5] = test system: human retinal endothelial cells (HREC); assay: Testing 7: VEGF-induced HREC proliferation (MTS assay), integrin antagonists and Lucentis alone and in combination; assay type: cell-based; details: study II; compound 1 nM; Lucentis 1 ng/mL
Experimental: HREC were first cultured overnight in a 96-well plate coated with fibronectin. The next day medium containing different agents as shown in Tables 14 and 15 was pre-incubated for 1 hour before being added into appropriate wells. The cells were cultured at 37° C., 5% CO2, and 95% humidity for another 3 days. After that, cell proliferation was estimated by the MTS assay. In the first study we used VEGF 10 ng/mL (about EC80 in study PH08169), Lucentis® 1 ng/mL (about EC25 in study PH09038) and 5 doses of BOL-303055-X. Normal IgG (1 ng/ml) was also added to groups containing no Lucentis®. All groups contained the same amount of 0.1% DMSO. In the second study, all five compounds (BOL-303049-X, BOL-303050-X, BOL-303051-X, BOL-303054-X and BOL-303055-X) were tested at 1 nM with other conditions remaining the same.
A 96-well plate was coated with human fibronectin (10 μg/mL) for 5 hours at 37° C. HREC were washed with HBSS buffer once, tripsinized and re-suspended in 10% FBS CS-C medium at 18,000 cells/mL. Cells (200 μL) were added to the plate and cultured overnight at 37° C., 5% CO2, and 95% humidity. Next day, the cells were serum-starved for 2 hours.
For study I, VEGF at 10 ng/mL, Lucentis® at 1 ng/mL and BOL-303055-X at 0.1, 0.3, 1, 3 and 10 nM were prepared in 1% FBS CS medium as shown in Table 14. Normal IgG (1 ng/mL) were added to groups containing no Lucentis®. All medium solutions were incubated for 1 hour at 37° C. After carefully medium was aspirated, 200 μL of the medium containing different agents were then added into appropriate wells. The cells were cultured for another 3 days. For the study II as shown in the Table 15, five compounds were tested at 1 nM with other conditions remaining the same as study I.
At the end of incubation, the medium was carefully aspirated from cells and 120 μl of MTS working solution was added into all wells including blank wells (without cells). The plates were incubated at 37° C., 5% CO2, and 95% humidity for 1 hour and then read by a plate reader at 490 nm wavelength.
Median optical density (OD) was generated from different groups. Data were expressed as mean±SEM of the OD values. Statistical analysis was performed using three-way ANOVA after Box-Cox transformations, and p<0.05 was considered statistically significant. To evaluate whether the effects of the combinations were either synergistic or additive, net inhibitions were calculated by subtracting the basal levels in the presence of VEGF from the individual treatments (Lucentis® and Integrin blockers) and the combinations. […] Data analysis was performed utilizing the statistical analysis software JMP (SAS Institute, Cary, N.C.).

[6] = one intravitreal injection after laser
[7] = Day 14, 200 μg/eye intravitreal

Row | Compound | CNV area / development of CNV on isolectin IB4-labeled flat mounts compared to vehicle-treated controls [1, 6] | Mean score of fluorescein leakage (FA score) compared to vehicle-treated controls [1, 6] | Number of lesions in FA grade 1 [1] | Number of lesions in FA grade 2 [1] | Number of lesions in FA grade 3 [1] | Number of lesions in FA grade 4 [1] | Inhibition of PMA-induced HREC network formation in fibrin gel ([2]; 10 nM) | Enhancement of Avastin potency [3] | Inhibition of VEGF-induced HREC proliferation, agent alone ([3]; Avastin 0.625-10 ng/ml (significant at 10 ng/ml), VEGF 10 ng/mL) | HREC proliferation under basal conditions ([3]; Avastin 0.625-10 ng/ml, no VEGF) | Combination effect with Avastin on VEGF-induced HREC proliferation (synergistic/additive) ([3]; Avastin 0.625 to 10 ng/ml) | Cataract formation ([4]; Day 14, echistatin 5 μg/eye intravitreal) | Intraocular inflammation and retinal vascular congestion [4] | Inhibition of PMA-induced HREC network formation in fibrin gel ([2]; 1 nM) | Eyes with anterior chamber inflammation/Total eyes [4, 7] | Eyes with retinal vascular congestion/vessel-observable eyes [4, 7] | Combination effect with Lucentis on VEGF-induced HREC proliferation (synergistic/additive) [5] | Posterior synechiae of iris [4, 7]
1 | Echistatin [reference compound] | smaller area of CNV | smaller means | 0 | 12 | 3 | 2 | significantly inhibited | approximately 1.6 fold | not statistically significant | significantly inhibited | additive effects | Two eyes treated with echistatin developed cataract | no intraocular inflammation and retinal vascular congestion was recorded |  |  |  |  | 
2 | Cc1nc(NC[C@H](NC(=O)OCC2CCCCC2)C(=O)O)c(C)c(N2CCC(c3ccc4c(n3)NCCC4)CC2)n1 [BOL-303051-X] |  | smaller means | 2 | 3 | 9 | 10 | significantly inhibited |  |  |  |  |  |  | significantly inhibited | 3/6 | 0/4 | additive effects | 
3 | CC1(C)O[C@@H]2C[C@H]3[C@@H]4CCC5=CC(=O)C=C[C@]5(C)[C@@]4(F)[C@@H](O)C[C@]3(C)[C@]2(C(=O)CO)O1 [TA, triamcinolone acetonide, reference compound] |  |  | 3 | 11 | 4 | 0 |  |  |  |  |  |  | no intraocular inflammation and retinal vascular congestion was recorded |  |  |  |  | 
4 | COc1ccc(CCOC(=O)N[C@@H](CNc2nc(C)nc(N3CCC(c4ccc5c(n4)NCCC5)CC3)c2C)C(=O)O)cc1 [BOL-303049-X] |  |  | 0 | 0 | 0 | 0 | significantly inhibited |  |  |  |  |  | most severe inflammation | significantly inhibited | 6/6 | 1/1 | synergistic effect | Posterior synechiae of iris occurred in several eyes
